According to patent publication US8603493B2, “Carbosilane dendrimers, preparation method thereof and use of same” (Dendrico, S.L., priority 2005, dated 2013):

Key:
PBMC = assay: Transfection test of PBMC (confocal microscopy); type: cell-based, human; conditions: after 48 hours
Description: After incubations with the mixtures containing fluorescent ODNs, dendriplexes, dendrimers or RPMI, the cells were treated for the subsequent acquisition of images in the conventional confocal or fluorescence microscope. The cells were adhered to glass slides with wells of 30 mm in diameter by Poly-L-lysine, (PLL) (Sigma®). To do this, the slides were preincubated with 30 μl of PLL during 2 hours in an incubator at 37° C. and 5% CO2. After this incubation, the excess PLL was washed with PBS. The cells from each treatment that were going to be adhered in the PLL were washed twice with PBS and were labelled for 1 minute with 0.8% Trypan Blue (Sigma®) to then show the […] cells. They were again washed twice with PBS. At that time the cells were added to the well (100,000/well), being disposed on the PLL during 1 hour in an incubator at 37° C. and 5% CO2. After this hour, the excess volume was washed with PBS and the cells were treated with recently prepared 3% paraformaldehyde (PFA) (within 2 weeks of its use) during 10 minutes. […] Finally, the preparation was mounted using a special medium for fluorescence (DAKO Cytomation Fluorescent Mounting Medium®) with antifading (designed to protect the sample from deterioration caused by lasers). […] After the capture of images, it was analysed using Leica® software. […]

plasmid Nf-kappaB-luc = assay: Capacity to form complexes with large-sized DNA (plasmid); type: binding; conditions: charge ratio (+/−)=6/1 manages to retain DNA migration
Description: In a similar form to the previous experiments, electrophoresis was carried out with different samples, placing them a ladder type marker which measures up to 5000 pb in the well previous to it.

[1] = molecular target: T1, Insulin (recombinant human insulin) (Homo sapiens, UniProt P01308); assay: pH stability test of IM16 dendrimer-insulin complexes; type: physicochemical; conditions: 0.5 U insulin; pH 5, 6, 7.4, 9, 10; 15 minutes
T1 construct: Despite having its molecular weight (5825 g/mol) and establishing an average of 4 (−) charges; purchased Novo Nordisk Actrapid (trade name; no catalogue number given)
Description: The test on the behaviour of the dendrimer-drug complexes previously formed on varying the medium's pH was again performed by evaluating the delay in polyacrylamide gel of the dendrimer bound to the drug with respect to free dendrimer, following a process similar to that used in the tests to determine the dendrimer-drug bond, although introducing a stage of variation of pH in the complex formation process of prior to electrophoresis, process that was performed in the following way: • Complex formation: It was performed in a final mixture volume of 30 μl, which is the maximum volume for loading in the gel. To do this, we started from the necessary quantity of dendrimer which provides a band perfectly identifiable by staining with silver nitrate in the gel once the electrophoresis has been performed: 20 μl of a 100 μM solution, which correspond to 1.2×10^15 molecules. […] An incubation was performed of the dendrimer and drug mixtures at 37° C. during 1 hour to give time for a more thermodynamically stable complex to form, although more time may be needed for its formation. For each pH to test, 2 mixtures were incubated. […]

T1 sequence (P01308 25-54 limits assumed): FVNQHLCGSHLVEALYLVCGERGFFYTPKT
T1 sequence (P01308 90-110 limits assumed): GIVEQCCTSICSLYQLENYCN

Question: `C[Si](C)(CCCN)CCC[Si](C)(CCC[Si](C)(C)CCCN)CCC[Si](CCC[Si](C)(CCC[Si](C)(C)CCCN)CCC[Si](C)(C)CCCN)(CCC[Si](C)(CCC[Si](C)(C)CCCN)CCC[Si](C)(C)CCCN)CCC[Si](C)(CCC[Si](C)(C)CCCN)CCC[Si](C)(C)CCCN.Cl.Cl.Cl.Cl.Cl.Cl.Cl.Cl` [ClNH4, 2G-[Si(CH2)3NH3^+Cl^−]8] was tested. Which “fluorescence pattern after transfection with PPT dendriplexes” value (PBMC) did it give?
Answer: fluorescence pattern in aggregates

Question: How did the “complex formation with plasmid” value (plasmid Nf-kappaB-luc) turn out when `C[N+](C)(C)CCO[Si](C)(C)CCC[Si](C)(CCC[Si](CCC[Si](C)(CCC[Si](C)(C)OCC[N+](C)(C)C)CCC[Si](C)(C)OCC[N+](C)(C)C)(CCC[Si](C)(CCC[Si](C)(C)OCC[N+](C)(C)C)CCC[Si](C)(C)OCC[N+](C)(C)C)CCC[Si](C)(CCC[Si](C)(C)OCC[N+](C)(C)C)CCC[Si](C)(C)OCC[N+](C)(C)C)CCC[Si](C)(C)OCC[N+](C)(C)C.[I-].[I-].[I-].[I-].[I-].[I-].[I-].[I-]` [IM8, 2G-[Si(OCH2CH2NMe3^+I^−)]8] was run?
Answer: capable of forming complexes with the plasmid used

Question: For `C[N+](C)(C)CCO[Si](C)(CCC[Si](C)(CCC[Si](CCC[Si](C)(CCC[Si](C)(OCC[N+](C)(C)C)OCC[N+](C)(C)C)CCC[Si](C)(OCC[N+](C)(C)C)OCC[N+](C)(C)C)(CCC[Si](C)(CCC[Si](C)(OCC[N+](C)(C)C)OCC[N+](C)(C)C)CCC[Si](C)(OCC[N+](C)(C)C)OCC[N+](C)(C)C)CCC[Si](C)(CCC[Si](C)(OCC[N+](C)(C)C)OCC[N+](C)(C)C)CCC[Si](C)(OCC[N+](C)(C)C)OCC[N+](C)(C)C)CCC[Si](C)(OCC[N+](C)(C)C)OCC[N+](C)(C)C)OCC[N+](C)(C)C.[I-].[I-].[I-].[I-].[I-].[I-].[I-].[I-].[I-].[I-].[I-].[I-].[I-].[I-].[I-].[I-]` [IM16, 2G-[Si(OCH2CH2NMe3^+I^−)2]8], which “pH stability of dendrimer-insulin complex” value [1] is on record?
Answer: dissociated at acid pH
